Test results taken from US5977165A, “Radicicol derivatives” (Kyowa Hakko Kogyo Co., Ltd., priority 1995, dated 1999).
≈ marks a conversion by molar mass, not a printed value. Like-named read-outs stand apart in the source and are kept apart here.

How the values were obtained:
[1] = system: Eacillus subtilis No. 10707; assay: Antibacterial activity test (agar dilution method); type: cell-based; conditions: pH 7, Eacillus subtilis No. 10707, read-out: Minimum growth inhibition concentration (MIC), BS
Method: (§1) Antibacterial Activity Test
(§2) the antibacterial activity was measured by an agar dilution method using a medium (pH 7) which has been prepared by dissolving 3 g of Bacto-Tryptone (manufactured by Difco), 3 g of meat extract, 1 g of yeast extract, 1 g of flucose and 16 g of agar in 1 l of water. The antibacterial activity was expressed by minimum growth inhibition concentration (MIC).
BS: Eacillus subtilis No. 10707

[2] = system: P388 leukemia; assay: Antitumor test on P388 leukemia; type: in vivo, mouse; conditions: CDF1 mice, 1×10^6 P388 cells i.p., compound into abdominal cavity 24 hours after transplantation, 30 days; dose not given
Method: Antitumor Test on P388 Leukemia
The ascitic fluid was collected from the abdominal cavity of P388 ascites-induced mouse (DBA/2) 7 days after the transplantation. The number of P388 cells in the ascitic fluid was counted to prepare a tumor cell suspension of 5×10^6 cells/ml using sterilized physiological saline, and its 0.2 ml portion (containing 1×10^6 cells) was transplanted into the abdominal cavity of CDF1 mice having 20 to 25 g in body weight. […] Effects of the test compounds were judged by the ratio of average survival days in the test compound-administered group to that in the control group (un-treated group) (increased life span, ILS %).

[3] = system: sarcoma 180 solid tumor; assay: Antitumor test on sarcoma 180 solid tumors; type: in vivo, mouse; conditions: ddY mice, intravenous injection 24 hours after s.c. transplantation, tumor volume at 7 days; dose not given
Method: Antitumor Test on Sarcoma 180 Solid Tumors
Seven days after transplantation of 5×10^6 of sarcoma 180 cells into the abdominal cavity of a ddY mouse, the cells were collected from the ascitic fluid, washed once with sterilized physiological saline and then made into a cell suspension of 5×10^7 cells/ml using sterilized physiological saline. A 0.1 ml portion of the cell suspension was transplanted under the skin of the right side axillary part of ddY mice of 20±2 g in body weight and, after 24 hours of the tumor transplantation, 0.1 to 0.2 ml of each test compound dissolved in physiological saline or polyoxyethylene sorbitan monolaurate-containing physiological saline was administered by intravenous injection to ddY mice of 5 animals per group. The major axis (a) and the minor axis (b) of each tumor 7 days after the transplantation were measured to calculate the tumor volume as an a×b^2 /2 value. Antitumor activity of each test compound was expressed by the ratio (T/C) of the tumor volume (T) of the test compound-administered group to the tumor volume (C) of the control group in which the drug was not administered.

[4] = system: T cell growth; assay: T cell growth inhibition test by mixed mouse lymphocyte culture reaction; type: cell-based; conditions: 72 hours, 37° C., [^3 H]-thymidine incorporation, AKR spleen / B10.BR lymph node cells
Method: T Cell Growth Inhibition Test by Mixed Mouse Lymphocyte Culture Reaction
The spleen was excised aseptically from an AKR mouse (Japan SLC Co., Ltd.) and made into a single cell suspension. The suspension was mixed with mitomycin C (MMC) (Kyowa Hakko Kogyo Co., Ltd.) (final concentration, 50 μg/ml) and cultured at 37° C. for 30 minutes. After the culturing, the cells were washed three times with a solution (HBSS) prepared by adding 2.5% fetal calf serum (FCS, Gibco Co.) to Hanks' balanced salt solution (Gibco Co.) and then adjusted to a density of 1×10^7 cells/ml.
A 50 μl portion of B10.BR mouse (Japan SLC Co., Ltd.) lymph node cell suspension (containing 1.5×10^5 cells), 50 μl of AKR mouse spleen cell suspension (containing 5×10^5 cells) and 100 μl of radicicol solution having each test concentration were added to each well of a 96 well microtiter plate and cultured at 37° C. for 72 hours in a CO2 incubator. A 1.0 μCi portion of [^3 H]-thymidine was added 18 hours before the completion of the culturing. After completion of the culturing, the cells were trapped on a filter paper using a cell harvester and dried, and then a toluene scintillator was added thereto to measure the amount of radioactivity of [^3 H]-thymidine incorporated into cells using a scintillation counter (test group). As a control group, the same culturing was carried out without adding the solution of Compound (I) and then the amount of radioactivity of [^3 H]-thymidine incorporated into cells was measured. The T cell growth inhibition ratio was calculated based on the following formula, from which the concentration of each test compound that inhibits 50% of the growth (IC50 was calculated. [formula] (In the above formula, the radioactivity in MMC-treated AKR mouse means the radiation dose of [^3 H]-thymidine incorporated into MMC-treated AKR mouse spleen cells, and the radioactivity in B10.BR mouse means the radiation dose of [^3 H]-thymidine incorporated into B10.BR mouse lymph node cells.)

[5] = system: Enterococcus hirae ATCC 10541; type: cell-based; conditions: pH 7
Method: as §1, §2
EH: Enterococcus hirae ATCC 10541

[6] = system: HeLa S3 cells; assay: Cell growth inhibition test on HeLa S3 cells; type: cell-based; conditions: Homo sapiens, read-out: IC50, cell growth inhibition activity upon HeLa S3 cells
Method: Cell Growth Inhibition Test on HeLa S3 Cells
HeLa S3 cells which have been adjusted to 3.0×10^4 cells/ml with MEM medium (manufactured by Nissui Pharmaceutically containing 10% fetal calf serum and 2 mM […] were dispensed in 0.1 ml/well portions into a 96 well microtiter plate. The cells were cultured at 37° C. for 20 hours in a carbon dioxide gas incubator, the culture supernatant was removed and then the plate was washed once with physiological saline. Next, 0.1 ml of the medium containing each test compound was added to each well, and the cells were cultured at 37° C. for 72 hours in the carbon dioxide gas incubator. After removing the culture supernatant, 0.1 ml of the medium containing 0.02% Neutral Red was added to each well, and the cells were stained at 37° C. for 1 hour in the carbon dioxide gas incubator. After removing the culture supernatant, the plate was washed once with physiological saline, the pigment was extracted with 0.001 N hydrochloric acid/30% ethanol and then absorption at 550 nm was measured by a microplate reader. The concentration of each test compound which inhibits 50% of the cell growth (IC50) was calculated by comparing the absorption of un-treated cells with that of the cells treated with known concentration of each sample.

[7] = system: Candida albicans ATCC 10231; assay: Antibacterial activity test (agar dilution method); type: cell-based; conditions: ATCC10231, pH 7, Candida albicans ATCC 10231, read-out: Minimum growth inhibition concentration (MIC), CA
Method: as §1, §2
CA: Candida albicans ATCC 10231

[8] = system: intracellular tyrosine kinase (v-Src tyrosine kinase, SR-3Y1 cells); assay: Inhibition test of intracellular tyrosine kinase (tyrosine phosphorylation, Western blotting, SR-3Y1 cells); type: cell-based; conditions: Rattus norvegicus, SR3Y1, 37° C., 15 hours, tyrosine-phosphorylated protein, read-out: IC50, inhibitory activity of intracellular tyrosine kinase
From the text: The inhibitory effect of the tyrosine kinase activity can be measured by carrying out Western blotting analysis with an anti-phosphotyrosine antibody using a rat fibroblast cell strain SR-3Y1 transformed with an oncogene v-Src (available from RIKEN Gene Bank) and calculating the amount of intracellular protein in which tyrosine is phosphorylated. Since the tyrosine phosphorylation level of intracellular protein in SR-3Y1 cells for use in this method is increased by v-Src tyrosine kinase, the ability of radicicol derivatives to inhibit v-Src tyrosine kinase can be detected as reduction of the amount of protein in which tyrosine is phosphorylated. Robinson, S. P. et al. [International Journal of Oncology, 2, 253 (1993)] report a method for examination of tyrosine phosphorylation inhibition effect by Western blotting analysis, and Kwon, H. J. et al. [Cancer Research, 52, 6926 (1992)] report examples of experiment using SR-3Y1 cells.
Inhibition Test of Intracellular Tyrosine Kinase
SR-3Y1 cells were cultured at 37° C. for 15 hours in an atmosphere of 5% carbon dioxide, using Dulbecco's modified Eagle's medium (DMEM) containing 10% fetal calf serum (FCS), to which each radicicol derivative to be tested has been added in varied concentration. The thus cultured cells were lysed at 4° C. for 20 minutes in a cooled buffer solution for lysis use (50 mM Tris HCl, pH 7.5, 150 mM NaCl, 1% Triton X-100, 0.1% SDS, 1% sodium deoxycholate, 2 mM EDTA, 1 mM PMSF, 20 μM leupeptin, 0.15 unit/ml aprotinin, 1 mM Na3 VO4) and then centrifuged at 20,000 g for 30 minutes. After measuring protein concentration in the resulting supernatant fluid, samples were adjusted to the same protein quantity per lane to carry out separation of protein by SDS-PAGE. The thus separated protein samples were transferred onto a nitrocellulose membrane to which were subsequently added a mouse […] phosphotyrosine antibody MX-pTYR (Kyowa Medex Co., Ltd.) as a first antibody and a horseradish peroxidase-conjugated […] (BIO-RAD Co.) as a second antibody, thereby effecting their reactions with the protein samples on the membrane. Detection was carried out using ECL reagent (Amersham Co.), and the amount of tyrosine-phosphorylated protein was determined by scanning the density of banks obtained on an X-ray film. The activity of radicicol derivative to inhibit tyrosine phosphorylation can be shown as a concentration (IC50) of each derivative by which the ratio of tyrosine-phosphorylated protein is reduced to half in comparison with a control to which the drug is not added.

[9] = HeLa S3, 72 hours, 37° C., Neutral Red

SMILES	MIC [1] [µg/mL]	IC50 [4] [nM]	IC50 [6, 9] [nM]	IC50 [8] [nM]	also measured
C[C@@H]1C[C@@H](OC=O)C(Cl)/C=C\C=C\C(=O)Cc2c(Cl)c(O)cc(O)c2C(=O)O1 (some centres unmarked) [Compound 1]	83 (≈ 193 µM)				increased life span (ILS) [2]: 38%; T/C (tumor volume ratio) [3]: 51%
C[C@@H]1C[C@@H](O)C(Cl)/C=C\C=C\C(=O)Cc2c(Cl)c(O)cc(O)c2C(=O)O1 (some centres unmarked) [Compound 2]					T/C (tumor volume ratio) [3]: 50%
C[C@@H]1C[C@@H](O)C(Br)/C=C\C=C\C(=O)Cc2c(Cl)c(O)cc(O)c2C(=O)O1 (some centres unmarked) [Compound 3]	83 (≈ 186 µM)	300			increased life span (ILS) [2]: 46%
CC1CC(OS(=O)OC2CC(C)OC(=O)c3c(O)cc(O)c(Cl)c3CC(=O)C=CC=CC2Cl)C(Cl)C=CC=CC(=O)Cc2c(Cl)c(O)cc(O)c2C(=O)O1 (centres unmarked) [Compound 4]	1.3 (≈ 1.53 µM)		6000		increased life span (ILS) [2]: 42%; Minimum growth inhibition concentration (MIC), EH [5]: 2.6 µg/mL; T/C (tumor volume ratio) [3]: 39%; MIC [7]: 2.6 µg/mL (≈ 3.06 µM)
CC(=O)Oc1cc(OC(C)=O)c2c(c1Cl)CC(=O)/C=C/C=C\C(Cl)[C@H](OC=O)C[C@@H](C)OC2=O (some centres unmarked) [Compound 6]			5000		
CC(=O)Oc1cc(OC(C)=O)c2c(c1Cl)CC(=O)C=CC=CC(Cl)C(OS(=O)OC1CC(C)OC(=O)c3c(OC(C)=O)cc(OC(C)=O)c(Cl)c3CC(=O)C=CC=CC1Cl)CC(C)OC2=O (centres unmarked) [Compound 7]			1500		
C[C@@H]1C[C@H]2O[C@@H]2/C=C\C=C\C(=NO)Cc2c(Cl)c(O)cc(O)c2C(=O)O1 [Compound 8]		10	90	20	
CON=C1/C=C/C=C\[C@H]2O[C@@H]2C[C@@H](C)OC(=O)c2c(O)cc(O)c(Cl)c2C1 [Compound 9]	52 (≈ 132 µM)	20	50	< 50	MIC [7]: 6.5 µg/mL (≈ 16.5 µM)
C[C@@H]1C[C@H]2O[C@@H]2/C=C\C=C\C(=O)Cc2c(Cl)c(O[Si](C)(C)C(C)(C)C)cc(O[Si](C)(C)C(C)(C)C)c2C(=O)O1 [Compound 10]			3200	150	
C[C@@H]1C[C@H]2O[C@@H]2/C=C\C=C\C(=NO)Cc2c(Cl)c(O[Si](C)(C)C(C)(C)C)cc(O[Si](C)(C)C(C)(C)C)c2C(=O)O1 [Compound 11]				20	IC50 ([6]; HeLa S3, 72 h): 120 nM
COCON=C1/C=C/C=C\[C@H]2O[C@@H]2C[C@@H](C)OC(=O)c2c(O)cc(O)c(Cl)c2C1 [Compound 13]			20		
C[C@@H]1C[C@H]2O[C@@H]2/C=C\C=C\C(=NOCCCN=[N+]=[N-])Cc2c(Cl)c(O)cc(O)c2C(=O)O1 [Compound 14]			50	< 50	
CCCCCCCCCCCCCCCC(=O)Oc1cc(OC(=O)CCCCCCCCCCCCCCC)c2c(c1Cl)CC(=O)/C=C/C=C\C(Br)[C@H](O)C[C@@H](C)OC2=O (some centres unmarked) [Compound 19]		150			
C[C@@H]1C[C@H]2O[C@@H]2/C=C\C=C\C(=O)Cc2c(Cl)c(O)cc(O)c2C(=O)O1 [Radicicol, radicicol]	83 (≈ 228 µM)	150		180	increased life span (ILS) [2]: 27%; T/C (tumor volume ratio) [3]: 88%; IC50 ([6]; HeLa S3, 72 h): 6700 nM; MIC [7]: 20 µg/mL (≈ 54.8 µM)
